{"source": "patent US20240252488A1", "about": "(KOREA RESEARCH INSTITUTE OF CHEMICAL TECHNOLOGY, priority 2020, published 2024)", "key": {"FADD−/− Jurkat cells": {"test_system": "FADD−/− Jurkat cells", "test": "Necroptosis inhibition assay, TNF-α-induced necroptosis (CellTiter-Glo 2.0)", "format": "cell-based, human", "conditions": "TNF-α 15 ng/mL; for Necroptosis inhibition assay (Rescue %) 1 μM: compound 1 μM; for Necroptosis inhibition assay (Rescue %) 10 μM: compound 10 μM", "procedure,_shortened": "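Necroptosis induced by 15 ng/mL TNF-α (final) for 20–24 h at 37 °C, after a 30 min room-temperature pretreatment of FADD-deficient Jurkat cells with 0.1, 1 or 10 μM compound. ATP-based luminescence gave viability, from which inhibition rate and cytotoxicity were derived.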"}, "MLKL [1]": {"molecular_target": "T1, MLKL (Homo sapiens, UniProt Q8NB16)", "T1 sequence (Q8NB16 1-471)": "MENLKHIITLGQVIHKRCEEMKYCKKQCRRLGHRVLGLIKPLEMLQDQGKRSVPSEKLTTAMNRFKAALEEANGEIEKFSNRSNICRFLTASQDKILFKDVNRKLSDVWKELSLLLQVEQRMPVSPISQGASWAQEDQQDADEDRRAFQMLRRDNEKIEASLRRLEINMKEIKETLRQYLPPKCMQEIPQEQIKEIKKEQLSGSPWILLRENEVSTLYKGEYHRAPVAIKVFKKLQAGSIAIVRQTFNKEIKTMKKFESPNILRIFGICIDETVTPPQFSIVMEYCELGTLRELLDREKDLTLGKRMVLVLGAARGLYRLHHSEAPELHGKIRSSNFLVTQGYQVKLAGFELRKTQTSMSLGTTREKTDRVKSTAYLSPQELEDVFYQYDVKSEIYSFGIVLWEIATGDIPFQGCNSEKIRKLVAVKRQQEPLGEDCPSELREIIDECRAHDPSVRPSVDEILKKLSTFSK", "test": "Measurement of binding affinity with MLKL receptor (competitive binding assay, Kd)", "set-up": "made in house; host or cells: HEK 293 cell line (T7 phage in E. coli BL21-derived host is also described)", "procedure,_shortened": "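MLKL was produced in HEK 293 cells and tagged with DNA for detection. Liganded beads were blocked with excess biotin and washed to cut non-specific binding, then compounds (111× DMSO stocks, 0.9% DMSO in assay) competed for binding. Eluate kinase was measured by qPCR for Kd.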"}, "MLKL [2]": {"molecular_target": "T1, MLKL", "test": "MLKL degradation assay in HepG2 cell line (western blot)", "format": "cell-based", "set-up": "endogenous in cells; host or cells: HepG2 or HaCaT", "conditions": "cell line not given; for Degradation assay (Degradation %) 1 μM: compound 1 μM; for Degradation assay (Degradation %) 10 μM: compound 10 μM", "procedure,_shortened": "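Western blot chemiluminescence of MLKL in equal-protein lysates (10-15 μg, BCA-adjusted). Before lysis, HepG2 cells were exposed to 1 or 10 μM (final) test compound for 20-24 h at 37 °C.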"}}, "data": [{"smiles": "Nc1ncc(-c2cnn(C3CCN(C(=O)COCCOCCNC(=O)COc4cccc5c4C(=O)N(C4CCC(=O)NC4=O)C5=O)CC3)c2)nc1C(=O)O[C@@H](C(=O)Nc1ccc(F)cc1)c1ccccc1", "note": "(stereo partly drawn) [TDH-188, (R)-2-((4-fluorophenyl)amino)-2-oxo-1-phenylethyl 3-amino-6-(1-(1-(2-(2-(2-(2-((2-(2,6-dioxopiperidin-3-yl)-1,3-dioxoisoindolin-4-yl)oxy)acetamido)ethoxy)ethoxy)acetyl)piperidin-4-yl)-1H-pyrazol-4-yl)pyrazine-2-carboxylate]", "values": [{"measurement": "Necroptosis inhibition assay (Rescue %) 1 μM", "setting": "FADD−/− Jurkat cells", "value": 45.68, "unit": "%"}, {"measurement": "Necroptosis inhibition assay (Rescue %) 10 μM", "setting": "FADD−/− Jurkat cells", "value": 42.08, "unit": "%"}, {"measurement": "Kd", "setting": "MLKL [1]", "value": 3.5, "unit": "nM"}, {"measurement": "Degradation assay (Degradation %) 1 μM", "setting": "MLKL [2]", "value": 7.04, "unit": "%"}, {"measurement": "Degradation assay (Degradation %) 10 μM", "setting": "MLKL [2]", "value": 5.3, "unit": "%"}]}, {"smiles": "Nc1ncc(-c2cnn(C3CCN(C(=O)c4cn(C5CCN(C(=O)C6CCN(c7cccc8c7C(=O)N(C7CCC(=O)NC7=O)C8=O)CC6)CC5)cn4)CC3)c2)nc1C(=O)O[C@@H](C(=O)Nc1ccc(F)cc1)c1ccccc1", "note": "(stereo partly drawn) [TDH-362, (R)-2-((4-fluorophenyl)amino)-2-oxo-1-phenylethyl 3-amino-6-(1-(1-(1-(1-(1-(2-(2,6-dioxopiperidin-3-yl)-1,3-dioxoisoindolin-4-yl)piperidine-4-carbonyl)piperidin-4-yl)-1H-imidazole-4-carbonyl)piperidin-4-yl)-1H-pyrazol-4-yl)pyrazine-2-carboxylate]", "values": [{"measurement": "Necroptosis inhibition assay (Rescue %) 1 μM", "setting": "FADD−/− Jurkat cells", "value": 17.89, "unit": "%"}, {"measurement": "Necroptosis inhibition assay (Rescue %) 10 μM", "setting": "FADD−/− Jurkat cells", "value": 16.12, "unit": "%"}, {"measurement": "Kd", "setting": "MLKL [1]", "value": 5.5, "unit": "nM"}, {"measurement": "Degradation assay (Degradation %) 1 μM", "setting": "MLKL [2]", "value": 69.87, "unit": "%"}, {"measurement": "Degradation assay (Degradation %) 10 μM", "setting": "MLKL [2]", "value": 69.78, "unit": "%"}]}, {"smiles": "Nc1ncc(-c2cnn(C3CCN(CCOCCOCCNC(=O)CNc4ccc5c(c4)C(=O)N(C4CCC(=O)NC4=O)C5=O)CC3)c2)nc1C(=O)O[C@@H](C(=O)Nc1ccc(F)cc1)c1ccccc1", "note": "(stereo partly drawn) [TDH-103, (R)-2-((4-fluorophenyl)amino)-2-oxo-1-phenylethyl 3-amino-6-(1-(1-(2-(2-(2-(2-((2-(2,6-dioxopiperidin-3-yl)-1,3-dioxoisoindolin-5-yl)amino)acetamido)ethoxy)ethoxy)ethyl)piperidin-4-yl)-1H-pyrazol-4-yl)pyrazine-2-carboxylate]", "values": [{"measurement": "Necroptosis inhibition assay (Rescue %) 1 μM", "setting": "FADD−/− Jurkat cells", "value": 34.93, "unit": "%"}, {"measurement": "Necroptosis inhibition assay (Rescue %) 10 μM", "setting": "FADD−/− Jurkat cells", "value": 59.65, "unit": "%"}, {"measurement": "Kd", "setting": "MLKL [1]", "value": 1.4, "unit": "nM"}, {"measurement": "Degradation assay (Degradation %) 1 μM", "setting": "MLKL [2]", "value": 5.5, "unit": "%"}, {"measurement": "Degradation assay (Degradation %) 10 μM", "setting": "MLKL [2]", "value": 52.04, "unit": "%"}]}, {"smiles": "Nc1ncc(-c2cnn(C3CCN(CCCN4CCN(C(=O)CCc5cccc6c5C(=O)N(C5CCC(=O)NC5=O)C6=O)CC4)CC3)c2)nc1C(=O)O[C@@H](C(=O)Nc1ccc(F)cc1)c1ccccc1", "note": "(stereo partly drawn) [TDH-382, (R)-2-((4-fluorophenyl)amino)-2-oxo-1-phenylethyl 3-amino-6-(1-(1-(3-(4-(3-(2-(2,6-dioxopiperidin-3-yl)-1,3-dioxoisoindolin-4-yl)propanoyl)piperazin-1-yl)propyl)piperidin-4-yl)-1H-pyrazol-4-yl)pyrazine-2-carboxylate]", "values": [{"measurement": "Necroptosis inhibition assay (Rescue %) 1 μM", "setting": "FADD−/− Jurkat cells", "value": 59.24, "unit": "%"}, {"measurement": "Necroptosis inhibition assay (Rescue %) 10 μM", "setting": "FADD−/− Jurkat cells", "value": 22.12, "unit": "%"}, {"measurement": "Kd", "setting": "MLKL [1]", "value": 0.42, "unit": "nM"}, {"measurement": "Degradation assay (Degradation %) 1 μM", "setting": "MLKL [2]", "value": 81.82, "unit": "%"}, {"measurement": "Degradation assay (Degradation %) 10 μM", "setting": "MLKL [2]", "value": 81.68, "unit": "%"}]}, {"smiles": "COc1ccc(C(=O)N2CCN(CCCN3CCC(n4cc(-c5cnc(N)c(C(=O)O[C@@H](C(=O)Nc6ccc(F)cc6)c6ccccc6)n5)cn4)CC3)CC2)cc1N1CCC(=O)NC1=O", "note": "[TDH-447, (R)-2-((4-fluorophenyl)amino)-2-oxo-1-phenylethyl 3-amino-6-(1-(1-(3-(4-(3-(2,4-dioxotetrahydropyrimidin-1(2H)-yl)-4-methoxybenzoyl)piperazin-1-yl)propyl)piperidin-4-yl)-1H-pyrazol-4-yl)pyrazine-2-carboxylate]", "values": [{"measurement": "Necroptosis inhibition assay (Rescue %) 1 μM", "setting": "FADD−/− Jurkat cells; FADD−/− Jurkat cells", "value": 33.69, "unit": "%"}, {"measurement": "Necroptosis inhibition assay (Rescue %) 10 μM", "setting": "FADD−/− Jurkat cells; FADD−/− Jurkat cells", "value": 14.38, "unit": "%"}, {"measurement": "Kd", "setting": "MLKL [1]", "value": 0.17, "unit": "nM"}, {"measurement": "Degradation assay (Degradation %) 1 μM", "setting": "MLKL [2]", "value": 60.39, "unit": "%"}, {"measurement": "Degradation assay (Degradation %) 10 μM", "setting": "MLKL [2]", "value": 14.41, "unit": "%"}]}, {"smiles": "Nc1ncc(-c2ccc(N3CCN(CCOCCOCCNC(=O)C4CCN(c5cccc6c5C(=O)N(C5CCC(=O)NC5=O)C6=O)CC4)CC3)nc2)nc1C(=O)OC(C(=O)Nc1ccc(F)cc1)c1ccccc1", "note": "(centres unmarked) [TDH-257, 2-((4-fluorophenyl)amino)-2-oxo-1-phenylethyl 3-amino-6-(6-(4-(2-(2-(2-(1-(2-(2,6-dioxopiperidin-3-yl)-1,3-dioxoisoindolin-4-yl)piperidine-4-carboxamido)ethoxy)ethoxy)ethyl)piperazin-1-yl)pyridin-3-yl)pyrazine-2-carboxylate]", "values": [{"measurement": "Necroptosis inhibition assay (Rescue %) 1 μM", "setting": "FADD−/− Jurkat cells", "value": 24.61, "unit": "%"}, {"measurement": "Necroptosis inhibition assay (Rescue %) 10 μM", "setting": "FADD−/− Jurkat cells", "value": 21.71, "unit": "%"}, {"measurement": "Kd", "setting": "MLKL [1]", "value": 96, "unit": "nM"}, {"measurement": "Degradation assay (Degradation %) 1 μM", "setting": "MLKL [2]", "value": 7.56, "unit": "%"}, {"measurement": "Degradation assay (Degradation %) 10 μM", "setting": "MLKL [2]", "value": 26.63, "unit": "%"}]}, {"smiles": "Nc1ncc(-c2cnn(C3CCN(C(=O)c4cn(C5CCN(c6cccc7c6C(=O)N(C6CCC(=O)NC6=O)C7=O)CC5)cn4)CC3)c2)nc1C(=O)O[C@@H](C(=O)Nc1ccc(F)cc1)c1ccccc1", "note": "(stereo partly drawn) [TDH-364, (R)-2-((4-fluorophenyl)amino)-2-oxo-1-phenylethyl 3-amino-6-(1-(1-(1-(1-(2-(2,6-dioxopiperidin-3-yl)-1,3-dioxoisoindolin-4-yl)piperidin-4-yl)-1H-imidazole-4-carbonyl)piperidin-4-yl)-1H-pyrazol-4-yl)pyrazine-2-carboxylate]", "values": [{"measurement": "Necroptosis inhibition assay (Rescue %) 1 μM", "setting": "FADD−/− Jurkat cells", "value": 22.41, "unit": "%"}, {"measurement": "Necroptosis inhibition assay (Rescue %) 10 μM", "setting": "FADD−/− Jurkat cells", "value": 17.66, "unit": "%"}, {"measurement": "Kd", "setting": "MLKL [1]", "value": 5.3, "unit": "nM"}, {"measurement": "Degradation assay (Degradation %) 1 μM", "setting": "MLKL [2]", "value": 72.07, "unit": "%"}, {"measurement": "Degradation assay (Degradation %) 10 μM", "setting": "MLKL [2]", "value": 65.89, "unit": "%"}]}, {"smiles": "Nc1ncc(-c2cnn(C3CCN(C(=O)CCC4CCN(C(=O)CNc5ccc6c(c5)C(=O)N(C5CCC(=O)NC5=O)C6=O)CC4)CC3)c2)nc1C(=O)O[C@@H](C(=O)Nc1ccc(F)cc1)c1ccccc1", "note": "(stereo partly drawn) [TDH-422, (R)-2-((4-fluorophenyl)amino)-2-oxo-1-phenylethyl 3-amino-6-(1-(1-(3-(1-((2-(2,6-dioxopiperidin-3-yl)-1,3-dioxoisoindolin-5-yl)glycyl)piperidin-4-yl)propanoyl)piperidin-4-yl)-1H-pyrazol-4-yl)pyrazine-2-carboxylate]", "values": [{"measurement": "Necroptosis inhibition assay (Rescue %) 1 μM", "setting": "FADD−/− Jurkat cells; FADD−/− Jurkat cells", "value": 50.21, "unit": "%"}, {"measurement": "Necroptosis inhibition assay (Rescue %) 10 μM", "setting": "FADD−/− Jurkat cells; FADD−/− Jurkat cells", "value": 40.34, "unit": "%"}, {"measurement": "Kd", "setting": "MLKL [1]", "value": 4.1, "unit": "nM"}, {"measurement": "Degradation assay (Degradation %) 1 μM", "setting": "MLKL [2]", "value": 91.95, "unit": "%"}, {"measurement": "Degradation assay (Degradation %) 10 μM", "setting": "MLKL [2]", "value": 89.12, "unit": "%"}]}, {"smiles": "Nc1ncc(-c2cnn(C3CCN(CCOCCNC(=O)COc4ccc5c(c4)C(=O)N(C4CCC(=O)NC4=O)C5=O)CC3)c2)nc1C(=O)O[C@@H](C(=O)Nc1ccc(F)cc1)c1ccccc1", "note": "(stereo partly drawn) [TDH-168, (R)-2-((4-fluorophenyl)amino)-2-oxo-1-phenylethyl 3-amino-6-(1-(1-(2-(2-(2-((2-(2,6-dioxopiperidin-3-yl)-1,3-dioxoisoindolin-5-yl)oxy)acetamido)ethoxy)ethyl)piperidin-4-yl)-1H-pyrazol-4-yl)pyrazine-2-carboxylate]", "values": [{"measurement": "Necroptosis inhibition assay (Rescue %) 1 μM", "setting": "FADD−/− Jurkat cells", "value": 31.24, "unit": "%"}, {"measurement": "Necroptosis inhibition assay (Rescue %) 10 μM", "setting": "FADD−/− Jurkat cells", "value": 40.55, "unit": "%"}, {"measurement": "Kd", "setting": "MLKL [1]", "value": 7.1, "unit": "nM"}, {"measurement": "Degradation assay (Degradation %) 10 μM", "setting": "MLKL [2]", "value": 24.52, "unit": "%"}]}]}
